In patent publication US20050086710A1, “Method for generating recombinant human platelets for identifying therapeutic target proteins” (priority 2002, published 2005):

Legend:
[1] = tested on: modified platelets expressing GFP; assay: FACS measurement of platelet surface markers after activation, modified platelets expressing GFP; type: cell-based, human; conditions: gated for GFP, TRAP 25 μM or ADP 5 or 20 μM
Excerpt: (§1) Modified (E1/E3-deficient) flag-tagged adenoviruses for novel transgenes were generated that for expressing a transgene and green fluorescence protein (GFP) under control of two independent CMV promoters in a bi-cistronic system (He T C, Zhou S, da Costa L T, Yu J, Kinzler K W, Vogelstein B. A simplified system for generating modified adenoviruses. Proc Natl Acad Sci USA. 1998; 95:2509-14, purchased from Q Biogene, Heidelberg, Germany). As a control, Ad-GFP without further transgene was used. Large virus stocks were prepared and purified by centrifugation via cesium chloride density gradients. Adenoviral titers were determined using plaque titration and GFP expression titration in […] cells. • 1) Megakaryocytes were harvested at day 8-11 after isolation using a wide sterile single-use pipette and spun down in a 15 mL Falcon-tube at 1650 rpm for 8 min. • 2) The supernatant was discarded and the pellet resuspended in Opimem (at 4×10^5 cells/300 μL). • 3) Adenovirus was added to each well of a 24 well-plate for infection (multiplicity of infection (MOI) of 400 plaque forming units per cell). • 4) Cells were added and mixed by shaking, incubated for 30 min at 37° C. at 5% CO2, then • 5) spun down at 1000 rpm, 20° C. for 10 min.
• 1) Platelets were harvested by centrifugation at 1800 rpm for 1¼ min at 20° C.; the supernatant was diluted 1:1 with platelet wash buffer (1×PBS (w/o CA^2+ Mg^+) with 0.1% sodium azide (pH 7.2+/−0.2)). • 2) They were filtered through a 0.2 μm filter prior to use, stored at 4° C. and spun down at 1800 rpm for 5 min. • 3) The supernatant was discarded. ≈1 mL was left in the tube and washed again with staining buffer (1×PBS (w/o CA^2+Mg^+) with 0.1% sodium azide and 2% fetal bovine serum (FBS) and stored at 4° C. • 4) The supernatant was completely discarded. • 5) The pellet was resuspended in platelet-staining-buffer ([…]). • 6) 20 μL of the activators thrombin receptor activating peptide (TRAP; 25 μM), ADP (5 or 20 μM) or thrombin (2 U/ml) were added. 35 μL of the fibrinogen receptor binding peptide RGD or its negative control, RED, were added where indicated. • 7) The mixture was incubated for 10 min. at room temperature in the dark. • 8) Antibodys were added directly (in a volume of 7 μL each except for LIBS-FITC at 3.5 μL) and incubated for 20-30 min. at room temperature in the dark. • 9) 500-600 μL platelet staining buffer was added. Then, the mixture was spun down for 5 min. at 1800 rpm (in a tabletop centrifuge). The supernatant was discarded, 300-400 μL staining-buffer were added. FACS measurements were done immediately.
For the following studies, antibodies against the following antigens were used:
The antibodies were coupled to the following fluorescence systems, where appropriate (either directly or via secondary antibodies) and measured by fluorescence-activated cell sorting (FACS):
Platelets which co-expressed the transgene GFP were gated for this marker by studying FITC fluorescence, and the same measurements were then exclusively related to this gate.

[2] = tested on: freshly isolated human platelets; assay: FACS measurement of platelet surface markers after activation, freshly isolated platelets; type: cell-based; set-up: CD 41 (FACS) / CD 61 (FACS) / CD42b (FACS) / CD62P (FACS): unit not given here; conditions: TRAP 25 μM or ADP 5 or 20 μM, 10 min
Protocol: Freshly drawn blood from human volunteers was transferred into a Falcon tube and spun down for 20 min. at 1080 rpm at 20° C. […] The mixture was spun down for 10 min. at 2100 rpm at 20° C. The pellet was resuspended in staining buffer (1×PBS (w/o CA^2+ Mg^+) with 0.1% sodium azide and 2% fetal bovine serum) in a volume of 40 μl. […] Then, the mixture was spun down for 5 min. at 1800 rpm (in a tabletop centrifuge). The supernatant was discarded, 300-400 μL staining-buffer were added. FACS measurements were done immediately. For the following studies, antibodies against the following antigens were used: [table] The antibodies were coupled to the following fluorescence systems, where appropriate (either directly or via secondary antibodies) and measured by fluorescence-activated cell sorting (FACS): […] Platelets which co-expressed the transgene GFP were gated for this marker by studying FITC fluorescence, and the same measurements were then exclusively related to this gate.

[3] = tested on: megakaryocyte-derived platelets; assay: FACS measurement of platelet surface markers after activation, megakaryocyte-derived platelets; type: cell-based, human; set-up: unit not given here; conditions: TRAP 25 μM or ADP 5 or 20 μM, 10 min
Protocol: Then, the mixture was spun down for 5 min. at 1800 rpm (in a tabletop centrifuge). The supernatant was discarded, 300-400 μL staining-buffer were added. FACS measurements were done immediately. For the following studies, antibodies against the following antigens were used: [table] The antibodies were coupled to the following fluorescence systems, where appropriate (either directly or via secondary antibodies) and measured by fluorescence-activated cell sorting (FACS): [table] Platelets which co-expressed the transgene GFP were gated for this marker by studying FITC fluorescence, and the same measurements were then exclusively related to this gate.

[4] = tested on: freshly isolated platelets; assay: ELISA, release of PDGF, freshly isolated platelets; type: cell-based, human
Protocol: (§2) Freshly drawn blood from human volunteers was transferred into a Falcon tube and spun down for 20 min. at 1080 rpm at 20° C. The supernatant yielded the PRP (platelet-rich-plasma) and was transferred to a new tube and diluted 1:4 with wash-buffer (1×PBS (w/o CA^2+ Mg^+) with 0.1% sodium azide, pH 7.2+/−0.2, filtered through a 0.2 μm filter prior to use and stored at 4° C.). The mixture was spun down for 10 min. at 2100 rpm at 20° C. The pellet was resuspended in staining buffer (1×PBS (w/o CA^2+ Mg^+) with 0.1% sodium azide and 2% fetal bovine serum) in a volume of 40 μl.
(§3) ELISA Assays for β-thromboglobulin (Asserachrom β-TG, Roche Diagnostics, Mannheim, Germany) and platelet-derived growth factor (PDGF; PDGF-AB Immunoassay, Qiagen, Hilden, Germany) were performed according to the manufacturers' instructions. By using these assays, the thrombin dependent release of both mediators from platelets was assessed.

[5] = tested on: stem cell-derived platelets; assay: ELISA, thrombin dependent release of PDGF, stem cell-derived platelets; type: cell-based
Protocol: as §3

[6] = tested on: stem cell-derived platelets; assay: ELISA, thrombin dependent release of β-thromboglobulin, stem cell-derived platelets; type: cell-based
Protocol: as §3

[7] = tested on: freshly isolated platelets; assay: ELISA, release of β-thromboglobulin, freshly isolated platelets; type: cell-based, human; conditions: thrombin, amount not stated (basal 59±6)
Protocol: as §2, §3

[8] = tested on: stem cell-derived platelets after infection with Ad-GFP; assay: ELISA, release of PDGF, platelets after infection with Ad-GFP; type: cell-based; conditions: thrombin vs basal
Excerpt: as §1, with “10 min. […]” for “10 min.”

[9] = tested on: stem cell-derived platelets after infection with Ad-GFP; assay: ELISA, release of β-thromboglobulin, platelets after infection with Ad-GFP; type: cell-based; conditions: thrombin vs basal
Excerpt: as §1, with “10 min. […]” for “10 min.”

| Compound | CD 41 (FACS) [1] | CD42b (FACS) [1] | CD 61 (FACS) [1] | CD62P (FACS) [1] | PAC-1 (FACS) [1] | CD 41 (FACS) [2] | CD42b (FACS) [2] | CD 61 (FACS) [2] | CD62P (FACS) [2] | PAC-1 (FACS) [2] | CD 41 (FACS) [3] | CD42b (FACS) [3] | CD 61 (FACS) [3] | CD62P (FACS) [3] | further results |
| --- | --- | --- | --- | --- | --- | --- | --- | --- | --- | --- | --- | --- | --- | --- | --- |
| Nc1ncnc2c1ncn2[C@@H]1O[C@H](COP(=O)(O)OP(=O)(O)O)[C@@H](O)[C@H]1O [ADP] | 216 ± 18 | 95 ± 63 | 333 ± 78 | 314 ± 153 | 198 ± 10 | 92 ± 37 | 58 ± 15 | 16 ± 6 | 75 ± 18 | 90 ± 26 | 258 ± 24 | 46 ± 25 | 76 ± 9.5 | 121 ± 61 |  |
| thrombin |  |  |  |  |  |  |  |  |  |  |  |  |  |  | release of PDGF ([4]; 0.2 U thrombin (basal 214±11)): 566 ± 10 pg/mL; release of PDGF ([4]; 1 U thrombin (basal 214±11)): 664 ± 12 pg/mL; release of PDGF ([5]; 0.2 U thrombin (basal 280±95)): 590 ± 22 pg/mL; release of PDGF ([5]; 2 U thrombin (basal 280±95)): 610 pg/mL; Release of β-thromboglobulin ([6]; 0.2 U thrombin (basal 52±19)): 219±11 U/ml; Release of β-thromboglobulin ([6]; 2 U thrombin (basal 52±19)): 250±92 U/ml; Release of β-thromboglobulin [7]: 115±10 U/ml; increase of PDGF release [8]: 123±7%; increase in βTG release [9]: four-fold |
| thrombin receptor activating peptide [TRAP] | 213 ± 34 | 81 ± 29 | 325 ± 73 | 299 ± 146 | 178 ± 41 | 99 ± 25 | 40 ± 2 | 19 ± 4.8 | 162 ± 50 | 122 ± 34 | 248 ± 23 | 75 ± 41 | 75 ± 14 | 138 ± 69 |  |
